# Measured values from ChEMBL document CHEMBL1743201, “Casarett and Doull's Toxicology The Basic Science of Poisons, 7th edition” (2008).
# Key:
# Type in all cases: ADME
# [1] = molecular target: T1, Glutathione S-transferase A1 (Homo sapiens, UniProt P08263); assay: Substrates for human cytosolic glutathione transferase GSTA1
# T1 sequence (P08263 whole entry): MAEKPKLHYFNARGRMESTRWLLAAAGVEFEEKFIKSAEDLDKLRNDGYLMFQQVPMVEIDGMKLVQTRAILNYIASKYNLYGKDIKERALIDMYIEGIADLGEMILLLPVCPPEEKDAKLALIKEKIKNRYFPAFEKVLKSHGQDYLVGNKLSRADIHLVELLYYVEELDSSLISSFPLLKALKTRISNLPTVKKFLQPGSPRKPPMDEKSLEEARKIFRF
# [2] = molecular target: Glutathione S-transferase P (Homo sapiens, UniProt P09211); assay: Substrates for human cytosolic glutathione transferase GSTP1
# Cytochrome P450 2C9 = Cytochrome P450 2C9 (Homo sapiens, UniProt P11712); assay: Clinically relevant inhibitors of human liver microsomal P450 enzymes, isoform CYP2C9; settings: microsomes
# [3] = molecular target: T2, UDP-glucuronosyltransferase 1A1 (Homo sapiens, UniProt P22309); assay: Substrate of human UDP-glucuronosyltransferase UGT1A1
# T2 sequence (P22309 whole entry): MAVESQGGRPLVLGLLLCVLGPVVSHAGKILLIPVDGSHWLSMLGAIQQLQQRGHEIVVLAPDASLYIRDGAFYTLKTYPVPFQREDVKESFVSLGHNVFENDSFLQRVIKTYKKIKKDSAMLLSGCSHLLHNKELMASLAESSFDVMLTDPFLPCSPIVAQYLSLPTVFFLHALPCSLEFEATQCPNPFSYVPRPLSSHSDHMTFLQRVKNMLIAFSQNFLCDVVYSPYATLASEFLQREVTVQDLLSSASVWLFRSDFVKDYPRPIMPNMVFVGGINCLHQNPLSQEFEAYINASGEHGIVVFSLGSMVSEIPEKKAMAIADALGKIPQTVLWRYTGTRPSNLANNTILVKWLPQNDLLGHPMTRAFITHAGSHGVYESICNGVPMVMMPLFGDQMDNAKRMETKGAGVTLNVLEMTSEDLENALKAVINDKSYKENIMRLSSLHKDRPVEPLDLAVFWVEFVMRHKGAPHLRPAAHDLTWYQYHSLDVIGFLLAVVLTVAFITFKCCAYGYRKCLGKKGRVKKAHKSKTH
# Sulfotransferase 1E1 = molecular target: T3, Sulfotransferase 1E1 (Homo sapiens, UniProt P49888); assay: Major substrate of human cytosolic sulfotransferase SULT1E1
# T3 sequence (P49888 whole entry): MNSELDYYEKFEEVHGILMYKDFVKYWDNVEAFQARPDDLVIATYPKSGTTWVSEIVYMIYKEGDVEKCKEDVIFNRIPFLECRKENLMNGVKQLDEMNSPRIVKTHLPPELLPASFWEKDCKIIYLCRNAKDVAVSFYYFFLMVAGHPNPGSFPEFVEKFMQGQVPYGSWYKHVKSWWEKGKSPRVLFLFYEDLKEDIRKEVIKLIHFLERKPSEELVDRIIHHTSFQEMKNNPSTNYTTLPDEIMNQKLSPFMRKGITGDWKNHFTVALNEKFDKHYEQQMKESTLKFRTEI
# [4] = molecular target: T4, UDP-glucuronosyltransferase 1A3 (Homo sapiens, UniProt P35503); assay: Substrate of human UDP-glucuronosyltransferase UGT1A3
# T4 sequence (P35503 whole entry): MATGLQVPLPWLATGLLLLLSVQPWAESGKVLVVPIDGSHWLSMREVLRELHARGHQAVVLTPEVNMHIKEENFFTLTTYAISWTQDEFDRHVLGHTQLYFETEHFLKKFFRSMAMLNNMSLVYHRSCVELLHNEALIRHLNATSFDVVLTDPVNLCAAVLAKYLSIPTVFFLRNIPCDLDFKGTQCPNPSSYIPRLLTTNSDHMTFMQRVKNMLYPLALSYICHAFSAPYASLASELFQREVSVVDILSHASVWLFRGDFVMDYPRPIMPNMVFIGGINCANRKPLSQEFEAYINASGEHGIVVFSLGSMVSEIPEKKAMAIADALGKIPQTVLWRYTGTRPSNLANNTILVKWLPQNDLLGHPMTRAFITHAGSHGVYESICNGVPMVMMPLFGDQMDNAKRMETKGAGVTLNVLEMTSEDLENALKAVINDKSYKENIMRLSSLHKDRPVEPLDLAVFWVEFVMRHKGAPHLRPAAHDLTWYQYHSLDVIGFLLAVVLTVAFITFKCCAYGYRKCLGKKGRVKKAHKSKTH
# Sulfotransferase 1C4 = Sulfotransferase 1C4 (Homo sapiens, UniProt O75897); assay: Major substrate of human cytosolic sulfotransferase SULT1C4
# Cytochrome P450 2B6 = molecular target: T5, Cytochrome P450 2B6 (Homo sapiens, UniProt P20813); assay: Clinically relevant substrates of human liver microsomal P450 enzymes, isoform CYP2B6; settings: microsomes
# T5 sequence (P20813 whole entry): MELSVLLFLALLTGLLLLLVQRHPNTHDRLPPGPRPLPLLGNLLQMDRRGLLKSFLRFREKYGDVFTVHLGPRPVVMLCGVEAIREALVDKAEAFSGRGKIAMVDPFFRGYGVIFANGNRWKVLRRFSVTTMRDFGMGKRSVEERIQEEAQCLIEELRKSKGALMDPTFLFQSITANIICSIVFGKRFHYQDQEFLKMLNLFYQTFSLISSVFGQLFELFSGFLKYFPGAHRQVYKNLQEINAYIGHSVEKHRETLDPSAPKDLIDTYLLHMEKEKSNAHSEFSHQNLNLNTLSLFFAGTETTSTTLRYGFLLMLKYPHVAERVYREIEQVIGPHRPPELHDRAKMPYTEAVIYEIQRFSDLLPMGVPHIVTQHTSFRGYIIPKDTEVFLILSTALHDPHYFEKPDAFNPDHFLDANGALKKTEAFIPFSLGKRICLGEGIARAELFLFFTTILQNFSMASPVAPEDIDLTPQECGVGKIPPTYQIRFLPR
# [5] = molecular target: T6, UDP-glucuronosyltransferase 1A9 (Homo sapiens, UniProt O60656); assay: Substrate of human UDP-glucuronosyltransferase UGT1A9
# T6 sequence (O60656 whole entry): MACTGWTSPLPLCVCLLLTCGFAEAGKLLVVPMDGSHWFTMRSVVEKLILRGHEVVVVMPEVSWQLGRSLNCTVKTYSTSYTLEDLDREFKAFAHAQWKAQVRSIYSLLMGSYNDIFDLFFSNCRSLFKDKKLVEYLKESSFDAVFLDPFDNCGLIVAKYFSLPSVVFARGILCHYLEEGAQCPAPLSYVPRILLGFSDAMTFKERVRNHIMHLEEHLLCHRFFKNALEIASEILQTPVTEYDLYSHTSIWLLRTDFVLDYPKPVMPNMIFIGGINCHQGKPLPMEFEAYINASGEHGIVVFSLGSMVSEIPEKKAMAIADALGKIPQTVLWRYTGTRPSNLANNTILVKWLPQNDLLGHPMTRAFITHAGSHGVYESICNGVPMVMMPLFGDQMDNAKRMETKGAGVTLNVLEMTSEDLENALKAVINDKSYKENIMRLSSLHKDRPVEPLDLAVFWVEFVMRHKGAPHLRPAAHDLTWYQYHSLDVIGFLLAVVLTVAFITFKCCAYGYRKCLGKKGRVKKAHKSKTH
# [6] = molecular target: T7, UDP-glucuronosyltransferase 1A6 (Homo sapiens, UniProt P19224); assay: Substrate of human UDP-glucuronosyltransferase UGT1A6
# T7 sequence (P19224 whole entry): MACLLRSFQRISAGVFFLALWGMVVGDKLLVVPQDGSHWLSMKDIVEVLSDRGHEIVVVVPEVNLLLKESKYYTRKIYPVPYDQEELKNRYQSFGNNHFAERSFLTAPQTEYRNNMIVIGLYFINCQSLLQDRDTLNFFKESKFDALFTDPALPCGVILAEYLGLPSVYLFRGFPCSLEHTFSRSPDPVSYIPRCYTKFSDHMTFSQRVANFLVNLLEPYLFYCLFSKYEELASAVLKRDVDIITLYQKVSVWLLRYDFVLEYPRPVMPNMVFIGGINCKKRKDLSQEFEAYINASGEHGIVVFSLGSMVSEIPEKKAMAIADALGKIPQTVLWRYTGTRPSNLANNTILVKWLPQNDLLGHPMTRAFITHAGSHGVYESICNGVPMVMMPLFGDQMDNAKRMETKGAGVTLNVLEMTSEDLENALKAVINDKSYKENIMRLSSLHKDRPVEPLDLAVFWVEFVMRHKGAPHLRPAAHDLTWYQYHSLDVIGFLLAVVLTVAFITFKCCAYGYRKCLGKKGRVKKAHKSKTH
# Sulfotransferase 1A1 = Sulfotransferase 1A1 (Homo sapiens, UniProt P50225); assay: Major substrate of human cytosolic sulfotransferase SULT1A1
# [7] = molecular target: T8, UDP-glucuronosyltransferase 2B7 (Homo sapiens, UniProt P16662); assay: Substrate of human UDP-glucuronosyltransferase UGT2B7
# T8 sequence (P16662 whole entry): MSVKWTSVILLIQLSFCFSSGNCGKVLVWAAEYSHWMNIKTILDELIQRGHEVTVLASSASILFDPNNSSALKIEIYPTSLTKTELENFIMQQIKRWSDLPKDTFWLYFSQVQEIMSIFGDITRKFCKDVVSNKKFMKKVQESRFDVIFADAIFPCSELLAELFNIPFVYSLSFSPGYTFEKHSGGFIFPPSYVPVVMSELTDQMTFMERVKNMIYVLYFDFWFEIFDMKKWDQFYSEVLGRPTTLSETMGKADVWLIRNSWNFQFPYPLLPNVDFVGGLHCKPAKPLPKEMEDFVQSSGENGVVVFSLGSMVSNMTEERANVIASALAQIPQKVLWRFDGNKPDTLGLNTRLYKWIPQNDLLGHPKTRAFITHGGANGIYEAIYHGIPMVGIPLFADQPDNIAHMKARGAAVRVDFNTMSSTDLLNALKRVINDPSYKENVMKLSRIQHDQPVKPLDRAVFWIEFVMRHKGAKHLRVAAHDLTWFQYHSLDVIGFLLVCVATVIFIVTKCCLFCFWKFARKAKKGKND
# Chain of Glutathione S-transferase P (P09211 whole entry, canonical isoform): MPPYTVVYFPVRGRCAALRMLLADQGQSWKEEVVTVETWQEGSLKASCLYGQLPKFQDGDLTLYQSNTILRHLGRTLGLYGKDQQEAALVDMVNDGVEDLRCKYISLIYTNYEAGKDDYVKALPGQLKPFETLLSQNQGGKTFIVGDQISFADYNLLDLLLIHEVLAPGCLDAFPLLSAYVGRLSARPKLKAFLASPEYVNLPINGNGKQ
# Chain of Sulfotransferase 1C4 (O75897 whole entry, canonical isoform): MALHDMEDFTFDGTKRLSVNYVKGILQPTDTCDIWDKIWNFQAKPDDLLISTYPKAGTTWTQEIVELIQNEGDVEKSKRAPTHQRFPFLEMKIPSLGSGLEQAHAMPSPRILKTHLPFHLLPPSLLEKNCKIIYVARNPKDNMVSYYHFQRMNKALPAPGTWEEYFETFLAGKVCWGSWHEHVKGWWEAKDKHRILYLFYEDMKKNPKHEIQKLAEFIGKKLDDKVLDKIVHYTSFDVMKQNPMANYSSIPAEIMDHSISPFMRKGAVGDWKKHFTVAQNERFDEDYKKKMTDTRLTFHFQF
# Chain of Cytochrome P450 2C9 (P11712 whole entry, canonical isoform): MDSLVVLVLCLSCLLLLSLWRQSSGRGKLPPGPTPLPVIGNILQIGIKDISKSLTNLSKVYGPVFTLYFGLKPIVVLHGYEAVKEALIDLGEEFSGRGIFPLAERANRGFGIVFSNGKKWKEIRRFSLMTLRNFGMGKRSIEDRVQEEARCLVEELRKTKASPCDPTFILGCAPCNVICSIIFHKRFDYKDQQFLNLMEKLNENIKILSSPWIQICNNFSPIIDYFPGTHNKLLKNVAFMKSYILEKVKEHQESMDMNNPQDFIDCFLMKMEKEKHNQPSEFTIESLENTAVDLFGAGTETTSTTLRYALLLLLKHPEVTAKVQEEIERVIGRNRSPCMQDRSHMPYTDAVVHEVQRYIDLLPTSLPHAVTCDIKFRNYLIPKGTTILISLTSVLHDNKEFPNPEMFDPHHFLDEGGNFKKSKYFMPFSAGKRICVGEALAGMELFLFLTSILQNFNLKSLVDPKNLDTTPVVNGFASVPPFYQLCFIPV
# Chain of Sulfotransferase 1A1 (P50225 whole entry): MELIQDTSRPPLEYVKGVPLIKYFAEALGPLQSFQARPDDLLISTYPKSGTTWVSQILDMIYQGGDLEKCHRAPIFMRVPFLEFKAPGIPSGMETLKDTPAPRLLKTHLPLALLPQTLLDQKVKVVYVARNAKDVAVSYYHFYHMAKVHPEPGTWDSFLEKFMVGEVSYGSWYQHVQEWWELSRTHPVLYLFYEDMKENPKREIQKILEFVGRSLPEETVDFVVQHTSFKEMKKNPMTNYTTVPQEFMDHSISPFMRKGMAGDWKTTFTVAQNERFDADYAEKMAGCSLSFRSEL
structure (smiles),measurement,setting,value
O=C(O)CCCc1ccc(N(CCCl)CCCl)cc1 [CHLORAMBUCIL],Activity,[1],Substrate
same,Activity,[2],Substrate
Nc1ccc(S(=O)(=O)Nc2ccnn2-c2ccccc2)cc1 [SULFAPHENAZOLE],Activity,Cytochrome P450 2C9,Inhibitor
C[C@]12CC[C@@H]3c4ccc(O)cc4CC[C@H]3[C@@H]1CC[C@@H]2O[C@@H]1O[C@H](C(=O)O)[C@@H](O)[C@H](O)[C@H]1O [ESTRADIOL 17B GLUCURONIDE],Activity,[3],Substrate
C#C[C@]1(O)CC[C@H]2[C@@H]3CCc4cc(O)ccc4[C@H]3CC[C@@]21C [ETHINYL ESTRADIOL],Activity,Sulfotransferase 1E1,Substrate
same,Activity,[3],Substrate
CN1CCC(=C2c3ccccc3CC(=O)c3sccc32)CC1 [KETOTIFEN],Activity,[4],Substrate
CCCCCCCCCc1ccc(O)cc1 [4-NONYLPHENOL],Activity,Sulfotransferase 1C4,Substrate
O=P1(N(CCCl)CCCl)NCCCO1 (stereo not drawn) [CYCLOPHOSPHAMIDE ANHYDROUS],Activity,Cytochrome P450 2B6,Substrate
O=C1Nc2ccc(Cl)cc2[C@@](C#CC2CC2)(C(F)(F)F)O1 [EFAVIRENZ],Activity,Cytochrome P450 2B6,Substrate
OC(Cn1cncn1)(Cn1cncn1)c1ccc(F)cc1F [FLUCONAZOLE],Activity,Cytochrome P450 2C9,Inhibitor
COc1ccc2cc([C@H](C)C(=O)O)ccc2c1 [NAPROXEN],Activity,[4],Substrate
same,Activity,[5],Substrate
NCCc1c[nH]c2ccc(O)cc12 [SEROTONIN],Activity,[6],Substrate
CC(=O)Nc1ccc(O)cc1 [ACETAMINOPHEN],Activity,Sulfotransferase 1A1,Substrate
same,Activity,[3],Substrate
same,Activity,[6],Substrate
same,Activity,[5],Substrate
S=P(N1CC1)(N1CC1)N1CC1 [THIOTEPA],Activity,[2],Substrate
CNC1(c2ccccc2Cl)CCCCC1=O (stereo not drawn) [KETAMINE],Activity,Cytochrome P450 2B6,Substrate
CC(C(=O)O)c1cccc(C(=O)c2ccccc2)c1 (stereo not drawn) [KETOPROFEN],Activity,[4],Substrate
same,Activity,[5],Substrate
same,Activity,[7],Substrate
CC/C(=C(/CC)c1ccc(O)cc1)c1ccc(O)cc1 [DIETHYLSTILBESTROL],Activity,Sulfotransferase 1C4,Substrate
same,Activity,Sulfotransferase 1E1,Substrate
CC[C@@]1(c2ccccc2)NC(=O)N(C)C1=O,Activity,Cytochrome P450 2B6,Substrate
CC(C(=O)O)c1cccc(Oc2ccccc2)c1 (stereo not drawn) [FENOPROFEN],Activity,[4],Substrate
same,Activity,[5],Substrate
C[C@]12COC(=O)C[C@@H]1CC[C@@H]1[C@@H]2CC[C@@]2(C)[C@H]1CC[C@]2(C)O [OXANDROLONE],Activity,Cytochrome P450 2C9,Inhibitor
O=C(O)COc1ccc(C(=O)c2cccs2)c(Cl)c1Cl,Activity,Cytochrome P450 2C9,Inhibitor
O=C1[C@H](CC[C@H](O)c2ccc(F)cc2)[C@@H](c2ccc(O)cc2)N1c1ccc(F)cc1 [EZETIMIBE],Activity,[4],Substrate
C=CC1=C(C)/C(=C/c2[nH]c(Cc3[nH]c(/C=C4\NC(=O)C(C)=C4C=C)c(C)c3CCC(=O)O)c(CCC(=O)O)c2C)NC1=O [BILIRUBIN],Activity,[3],Substrate
CC(C)(c1ccc(O)cc1)c1ccc(O)cc1 [BISPHENOL A],Activity,Sulfotransferase 1C4,Substrate
CCCCCOC(=O)Nc1nc(=O)n([C@@H]2O[C@H](C)[C@@H](O)[C@H]2O)cc1F [CAPECITABINE],Activity,Cytochrome P450 2C9,Inhibitor
CCOC(=O)C1(c2ccccc2)CCN(C)CC1 [MEPERIDINE],Activity,Cytochrome P450 2B6,Substrate
C=CC=O [ACROLEIN],Activity,[2],Substrate
Cc1cc(=O)oc2cc(O)ccc12 [HYMECROMONE],Activity,[6],Substrate
Cc1ccnc2c1NC(=O)c1cccnc1N2C1CC1 [NEVIRAPINE],Activity,Cytochrome P450 2B6,Substrate
